Test system: anti-CD28 scFv
Test: Phage binding ELISA (panning) of clonal phage on anti-CD28 scFv, with or without CD28 soluble protein
Details: for Phage binding ELISA Backgroud signal / Backgroud signal: clonal phage supernatant; for Phage binding ELISA CD28 scFv signal in presence of CD28: clonal phage supernatant on captured anti-CD28 scFv pre-incubated with CD28 soluble protein; for Phage binding ELISA CD28 scFv signal: clonal phage supernatant on captured biotinylated anti-CD28 scFv; for Phage binding ELISA CD28 scFv signal / CD28 scFv signal: blocking buffer alone; for Backgroud signal / CD28 scFv signal in presence of CD28 / CD28 scFv signal: Phage binding ELISA; for Backgroud signal: background wells; for CD28 scFv signal in presence of CD28: captured anti-CD28 scFv pre-incubated with CD28 soluble protein; for CD28 scFv signal: captured biotinylated anti-CD28 scFv
Procedure: Clonal phage were harvested as crude supernatants and screened via standard enzyme linked immunosorbent assays (ELISAs). […] Prior to the addition of clonal phage, wells were incubated with blocking buffer and CD28 soluble protein or blocking buffer alone. Without washing or aspirating, clonal phage supernatants were then added to the wells and incubated for a short time. Wells were then washed followed by detection of bound phage using a horse radish peroxidase conjugated anti-M13 antibody. Clonal phage of interest were then sent for sequence analysis.

[1] = background (no anti-CD28 scFv signal)

Substance	Phage binding ELISA Backgroud signal (background signal)	other results
Phage-195 (MDWCPKHMWFMCFN)	0.101	
Phage-336 (MDWCPRDLWNWCFN)	0.139	
Phage-442 (IYWCPIDRWNDCYN)		Phage binding ELISA Backgroud signal [1]: 0.177
Phage-86 (MDWCPRHLWAECFF)	0.066	
Phage-76 (MDWCPRYLWSDCFA)	0.084	Phage binding ELISA CD28 scFv signal in presence of CD28: 1.530; Phage binding ELISA CD28 scFv signal: 2.727
Phage-435 (MDWCPRDRWVDCYA)		Phage binding ELISA Backgroud signal [1]: 0.157
Phage-260 (MDWCPVFMWNECFN)	0.079	
Phage-411 (MSWCPRFMWHECFN)		Phage binding ELISA Backgroud signal [1]: 0.081
Phage-436 (MDWCPRDRWADCFN)		Phage binding ELISA Backgroud signal [1]: 0.063
Phage-318 (MDWCPMFLWDECFN)	0.132	
Phage-391 (MDWCPFDMWADCFF)		Phage binding ELISA Backgroud signal [1]: 0.063
Phage-408 (MFWCPKDMWAECFA)		Phage binding ELISA Backgroud signal [1]: 0.099
Phage-89 (MDWCPRALWNVCFN)		Backgroud signal: 0.065
Phage-225 (MDWCPRDRWADCFF)	0.069	
Phage-321 (MDWCPRDLWYVCFA)	0.095	
Phage-400 (MHWCPTYMWSECFA)		Phage binding ELISA Backgroud signal [1]: 0.070
Phage-450 (EDWCPTDVWPYCFS)		Phage binding ELISA Backgroud signal [1]: 0.100
Phage-361 (MHWCPRHLWSECFN)	0.165	
Phage-443 (MDWCPMTRWNDCYF)		Phage binding ELISA Backgroud signal [1]: 0.081
Phage-393 (MDWCPRDMWFECFN)		Phage binding ELISA Backgroud signal [1]: 0.069
Phage-311 (MDWCPRDLWYQCFN)	0.069	
Phage-147 (MHWCPRDLWVVCFN)		Backgroud signal: 0.070
Phage-41 (MAWCPRDKWSECFS)	0.062	

Substance	Phage binding ELISA Backgroud signal (background signal)	other results
Phage-165 (MDWCPFYLWDECFL)	0.070	
Phage-440 (MDWCPRDRWVDCFN)		Phage binding ELISA Backgroud signal [1]: 0.106
Phage-334 (MDWCPRYLWDECFS)	0.069	
Phage-215 (MDWCPRYMWNECFN)	0.064	
Phage-79 (MDWCPRDLWHECFS)	0.066	
Phage-158 (MDWCPRYLWTECFF)		Backgroud signal: 0.110
Phage-173 (MDWCPMNLWSECFN)	0.168	
Phage-252 (MDWCPRHMWINCFA)	0.091	
Phage-402 (MDWCPRHMWHECFH)		Phage binding ELISA Backgroud signal [1]: 0.067
Phage-280 (MDWCPRYLWDYCFA)	0.073	
Phage-448 (MAWCPWASFDECLA)		Phage binding ELISA Backgroud signal [1]: 0.104
Phage-294 (MDWCPRSLWDYCFA)	0.115	
Phage-424 (ITQCPSTMWNRCSV)		Phage binding ELISA Backgroud signal [1]: 0.067
Phage-414 (LYWCPRDMWAYCYS)		Phage binding ELISA Backgroud signal [1]: 0.068
Phage-233 (MTWCPTSFWNRCLD)	0.142	
Phage-69 (MDWCPIHMWADCFA)	0.065	
Phage-120 (MDWCPRDLWHACFS)		Backgroud signal: 0.074
Phage-52 (MDWCPINLWDECFS)	0.062	
Phage-379 (MDWCPRNLWAECFS)	0.061	
Phage-209 (IDWCPQDMWFYCFN)	0.069	
Phage-270 (MDWCPRDFWAFCFF)	0.118	
Phage-264 (MDWCPRHLWHVCFN)	0.070	
Phage-182 (MHWCPRSLWNECYF)	0.168	

Substance	Phage binding ELISA Backgroud signal (background signal)	other results
Phage-123 (MDWCPIHLWNECFA)		Backgroud signal: 0.104
Phage-218 (TFGCPTTMWNRCFA)	0.117	
Phage-191 (MDWCPRDMWYECFN)	0.099	
Phage-228 (ITWCHVISGLECWN)	0.076	
Phage-44 (MDWCPIALWAECFN)	0.111	Phage binding ELISA CD28 scFv signal in presence of CD28: 0.224; Phage binding ELISA CD28 scFv signal: 2.458
Phage-293 (MDWCPRHLWFECFN)	0.064	
Phage-226 (MDWCPRDRWIDCFN)	0.218	
Phage-49 (MSWCPIHLWNECFN)	0.083	Phage binding ELISA CD28 scFv signal in presence of CD28: 0.284; Phage binding ELISA CD28 scFv signal: 2.057
Phage-207 (MDWCPRAMWHECFY)	0.069	
Phage-282 (MDWCPRDLWFACFA)	0.060	
Phage-229 (VPWCQIISGLECLT)	0.076	
Phage-430 (IHLCHWVPWIKCSH)		Phage binding ELISA Backgroud signal [1]: 2.516
Phage-381 (MAWCPRILWHQCFN)		Phage binding ELISA Backgroud signal [1]: 0.113
Phage-150 (MDWCPRHLWNVCFS)		Backgroud signal: 0.058
Phage-441 (MDWCPRDRWDDCFF)		Phage binding ELISA Backgroud signal [1]: 0.114
Phage-63 (MDWCPRALWAECFN)	0.068	
Phage-331 (MDWCPRHLWDECFY)	0.098	
Phage-187 (IGKLTLCLNADLVI)	0.274	
Phage-257 (MDWCPRFLWHECFN)	0.079	
Phage-328 (MDWCPRALWDHCFN)	0.323	
Phage-437 (MDWCPVDRWADCFN)		Phage binding ELISA Backgroud signal [1]: 0.071
Phage-338 (MDWCPRFLWNECFY)	0.143	
Phage-157 (MDWCPRSLWSYCFH)		Backgroud signal: 0.066

Substance	Phage binding ELISA Backgroud signal (background signal)	other results
Phage-152 (MDWCPKYLWDKCFH)		Backgroud signal: 0.073
Phage-172 (MDWCPPYLWYECFA)	0.068	
Phage-166 (MDWCPRHLWDLCFA)	0.061	
Phage-240 (MDWCPRTLWHVCFN)	0.317	
Phage-380 (MDYCPSYLWHECFA)		Phage binding ELISA Backgroud signal [1]: 0.065
Phage-162 (MNWCPTDLWHECFN)	0.087	
Phage-68 (MDWCPMYMWYECFA)	0.080	Phage binding ELISA CD28 scFv signal in presence of CD28: 0.358; Phage binding ELISA CD28 scFv signal: 2.479
Phage-304 (MDWCPKFLWDECFA)	0.311	
Phage-275 (MDWCPRDHWVDCYS)	0.172	
Phage-449 (MVDCPLISFDECLA)		Phage binding ELISA Backgroud signal [1]: 0.246
Phage-113 (MDWCPRDLWNVCFF)		CD28 scFv signal in presence of CD28: 0.137; CD28 scFv signal: 2.520; Backgroud signal: 0.164
Phage-253 (MVGCATSMWNRCLT)	0.256	
Phage-243 (MDWCPRHLWYECFN)	0.063	
Phage-262 (MYWCATSMWNRCFV)	0.248	
Phage-309 (MDWCPMFLWHECFN)	0.170	
Phage-54 (MNWCPRDMWYQCFN)	0.068	
Phage-305 (MDWCPRDLWTECFS)	0.080	
Phage-354 (MDWCPRYLWLECFN)	0.083	
Phage-197 (MDWCPRHMWYECFF)	0.129	
Phage-241 (MDWCPRHLWHECYS)	0.066	
Phage-183 (IDWCPRDLWALCFN)	0.127	
Phage-238 (MDWCPPYLWSECFA)	0.539	
Phage-111 (MDWCPFYLWNECFY)		CD28 scFv signal in presence of CD28: 0.594; CD28 scFv signal: 2.528; Backgroud signal: 0.099

Substance	Phage binding ELISA Backgroud signal (background signal)	other results
Phage-235 (MDWCPRYLWHECFS)	0.063	
Phage-412 (QHWCPRDMWNDCYA)		Phage binding ELISA Backgroud signal [1]: 0.066
Phage-232 (MDWCARFVGYGCLD)	0.948	
Phage-258 (MDWCPRSLWHVCFN)	0.098	
Phage-314 (MDWCPIHLWNECFN)	0.074	
Phage-144 (MDWCPRHLWYACFN)		Backgroud signal: 0.061
Phage-96 (MDWCPRTLWAYCFN)		CD28 scFv signal in presence of CD28: 0.584; CD28 scFv signal: 2.571; Backgroud signal: 0.070
Phage-330 (MDWCPRFLWDVCFN)	0.100	
Phage-350 (MDWCPWFLWNECFN)	0.158	
Phage-259 (MDWCPRNLWHACFN)	0.071	
Phage-272 (MVWCMSVGWAVCLN)	0.289	
Phage-237 (MDWCPSYLWHECFF)	0.067	
Phage-161 (MDWCPRHLWDQCFA)	0.150	
Phage-342 (MDWCPRNLWHECFA)	0.067	
Phage-83 (MDWCPRFLWDECFN)	0.065	
Phage-156 (MDWCPKHLWHQCFH)		Backgroud signal: 0.058
Phage-121 (MDWCPRDLWHVCFF)		Backgroud signal: 0.068
Phage-427 (VILCPTTMWNRCFH)		Phage binding ELISA Backgroud signal [1]: 0.100
Phage-376 (MDWCPRHLWTYCFH)	0.109	
Phage-71 (MDWCPRYLWHECFA)	0.071	
Phage-394 (MDWCPRYMWSDCFF)		Phage binding ELISA Backgroud signal [1]: 0.082
Phage-274 (WVSCLRHHWLECFH)	0.781	

— patent publication US20230357447A1, “TUMOR ACTIVATED MULTISPECIFIC ANTIBODIES FOR TARGETING CD28 AND PD-L1 AND METHODS OF USE THEREOF” (Janux Therapeutics, Inc., priority 2022, published 2023)
